Assay results reported in publication PMC7424068, “Design, Synthesis, and Biological Evaluation of Novel Thiazolidinone-Containing Quinoxaline-1,4-di-N-oxides as Antimycobacterial and Antifungal Agents” (Frontiers in Chemistry, 2020).
In brackets after ≈: the same amount, converted by molar mass. Where two headings read alike, the source gives them in different places.

Legend:
Mtb H37Rv (ATCC27294) = test: Antimycobacterial activity, microplate Alamar blue assay (MABA); type: cell-based, Mycobacterium tuberculosis; settings: for antimycobacterial activity (in words): Mtb strain H37Rv; for MIC: Mycobacterium tuberculosis, Mtb H37Rv
VERO cell line = test: Cytotoxicity MTT assay; type: cell-based; settings: Chlorocebus sabaeus, cytotoxicity in VERO cells, 72 h
Method: VERO cells (2 × 10^4 cells) were seeded into 96-well plates and incubated for 12 h. Serial dilutions of the compounds were mixed with the cell suspension in the plates. Both treated cells and blank and solvent controls were incubated for 72 h, followed by incubation with MTT (0.5 mg/mL) for another 4 h. The microplates were measured at 570 nm using a multimode reader (Infinite M200, Tecan). The percentage of viable cells was calculated as the mean with respect to the controls set to 100%. Triplicate wells were analyzed for each concentration. IC50 was defined as the concentration that reduced the viable cells by 50% compared to the untreated control cells. It was considered significant when the SI was more than 10.

[1] = test system: TB-infected macrophage model; test: Macrophage assay (TB-infected macrophage model); type: cell-based, Mycobacterium tuberculosis; settings: for EC90: Mycobacterium tuberculosis, Macrophage, 168 h, concentration causing 90% reduction in residual mycobacterial growth after 7 days; for EC99: concentration causing 99% reduction in residual mycobacterial growth after 7 days
C. albicans (ATCC90028) = test: Antifungal activity, broth microdilution; type: cell-based, Candida albicans
Method: (§1) All synthesized compounds and the positive control drugs amphotericin B and ketoconazole were tested for their in vitro antifungal activity. Antifungal activity was evaluated against four fungi, C. albicans (ATCC90028), C. tropicalis (ATCC7349), A. fumigatus (3.5352), and C. neoformans (2.3201), by broth microdilution according to the protocols from the NCCLS (Jiang et al., [2014]). Briefly, all tested compounds were dissolved in DMSO, and the solutions were diluted with fresh broth medium. All of the fungi-seeded broth (1 × 10^5 colony-forming units [CFU]/mL) were prepared in RPMI 1640 medium and added into the serially diluted drug solution. The tubes were incubated at 28°C, and the MIC (μg/mL) was recorded 72–96 h post-incubation. Broth control (without fungi), growth controls (with fungi and without drug), solvent (DMSO) control, and drug control for both test drugs and standard drugs were set under identical conditions. The minimum drug concentration in the tubes in which no apparent growth of the organism was observed represented the MIC of the compounds.

A. fumigatus (3.5352) = test: Antifungal activity, broth microdilution; type: cell-based; settings: Aspergillus fumigatus
Method: as §1

C. neoformans (2.3201) = test: Antifungal activity, broth microdilution; type: cell-based; settings: Cryptococcus neoformans
Method: as §1

C. tropicalis (ATCC7349) = test: Antifungal activity, broth microdilution; type: cell-based; settings: Candida tropicalis
Method: as §1

[2] = test system: Candida albicans, Candida tropicalis, Aspergillus fumigatus, and Cryptococcus neoformans; test: Antifungal activity, broth microdilution, stated for the four fungi together; type: cell-based; settings: read-out: MIC (antifungal, over the four fungi)
Method: as §1

[3] = test system: M. tuberculosis (Mtb) strain H37Rv; design: method as in Ortega et al., 2001; Vicente et al., 2009; settings: ref Ortega et al., 2001, Vicente et al., 2009; cited from earlier work
[4] = repeated in Table 5 for the 3D-QSAR models, read-out: MIC
[5] = experimental pMIC, Table 5, read-out: pMIC exp (converted)
[6] = Candida albicans ATCC 90028, read-out: MIC
[7] = A. fumigatus 3.5352, read-out: MIC
[8] = C. neoformans 2.3201, read-out: MIC
[9] = C. tropicalis ATCC 7349, read-out: MIC
[10] = C. albicans, C. tropicalis, A. fumigatus, C. neoformans together

SMILES	antimycobacterial activity (in words) (Mtb H37Rv (ATCC27294))	MIC (Mtb H37Rv (ATCC27294); [4]) [µg/mL]	MIC (Mtb H37Rv (ATCC27294); [5]) [µM]	IC50 (VERO cell line) [µg/mL]	EC90 [1] [µg/mL]	EC99 [1] [µg/mL]	MIC (C. albicans (ATCC90028); [6]) [µg/mL]	MIC (A. fumigatus (3.5352); [7]) [µg/mL]	MIC (C. neoformans (2.3201); [8]) [µg/mL]	MIC (C. tropicalis (ATCC7349); [9]) [µg/mL]	MIC [2, 10] [µg/mL]	melting point [°C]	MIC (Mtb H37Rv (ATCC27294); MABA assay, read-out: MIC) [µg/mL]	MIC [3] [µg/mL]	MIC (C. albicans (ATCC90028); Candida albicans) [µg/mL]	MIC (A. fumigatus (3.5352)) [µg/mL]	MIC (C. neoformans (2.3201)) [µg/mL]	MIC (C. tropicalis (ATCC7349)) [µg/mL]	MIC [2] [µg/mL]
O=C1CSC(c2c[n+]([O-])c3ccc(F)cc3[n+]2[O-])N1c1ccc(Cl)cc1 (centres unmarked) [2u, 7-F-2-(3′-P-chlorophenyl-4′(5H)-thiazolidinone)-quinoxaline-1,4-di-N-oxide]	good antimycobacterial activity	1.56	3.99	91.2 (≈ 233 µM)	0.84 (≈ 2.14 µM)	3.27	4 (≈ 10.2 µM)	2 (≈ 5.1 µM)	4 (≈ 10.2 µM)	4 (≈ 10.2 µM)	2 to 4 (≈ 5.1 to 10.2 µM)	249 to 252							
O=C1CSC(c2c[n+]([O-])c3ccc(Cl)cc3[n+]2[O-])N1c1ccccc1 (centres unmarked) [2v, 7-Cl-2-(3′-phenyl-4′(5H)-thiazolidinone)-quinoxaline-1,4-di-N-oxide]		3.13	8.39	119 (≈ 318 µM)			8 (≈ 21.4 µM)	4 (≈ 10.7 µM)	8 (≈ 21.4 µM)	8 (≈ 21.4 µM)		248 to 250	≤ 3.13						
Cc1ccc(N2C(=O)CSC2c2c[n+]([O-])c3ccc(Cl)cc3[n+]2[O-])cc1 (centres unmarked) [2w, 7-Cl-2-(3′-P-methylphenyl-4′(5H)-thiazolidinone)-quinoxaline-1,4-di-N-oxide]		6.25	16.1	125 (≈ 323 µM)			8 (≈ 20.6 µM)	8 (≈ 20.6 µM)	4 (≈ 10.3 µM)	4 (≈ 10.3 µM)		250 to 252	6.25						
O=C1CSC(c2c[n+]([O-])c3ccc(Cl)cc3[n+]2[O-])N1c1ccc(F)cc1 (centres unmarked) [2y, 7-Cl-2-(3′-P-fluorophenyl-4′(5H)-thiazolidinone)-quinoxaline-1,4-di-N-oxide]	good antimycobacterial activity	1.56	3.99	107 (≈ 273 µM)	1.33 (≈ 3.39 µM)	4.58	2 (≈ 5.1 µM)	4 (≈ 10.2 µM)	2 (≈ 5.1 µM)	4 (≈ 10.2 µM)	2 to 4 (≈ 5.1 to 10.2 µM)	251 to 253							
O=C1CSC(c2c[n+]([O-])c3ccc(Cl)cc3[n+]2[O-])N1c1ccc(Cl)cc1 (centres unmarked) [2z, 7-Cl-2-(3′-P-chlorophenyl-4′(5H)-thiazolidinone)-quinoxaline-1,4-di-N-oxide]	good antimycobacterial activity	1.56	3.85	94.6 (≈ 232 µM)	0.92 (≈ 2.25 µM)	3.93	4 (≈ 9.8 µM)	4 (≈ 9.8 µM)	4 (≈ 9.8 µM)	4 (≈ 9.8 µM)	2 to 4 (≈ 4.9 to 9.8 µM)	252 to 255							
Cc1ccc2c(c1)[n+]([O-])c(C#N)c(-c1ccc(F)cc1)[n+]2[O-] [7-methyl-3-(4′-fluoro)phenylquinoxaline-2-carbonitrile-1,4-di-N-oxide]														< 0.2					
C[C@@H]1[C@H](O)[C@@H](C)/C=C/C=C/C=C/C=C/C=C/C=C/C=C/[C@H](O[C@@H]2O[C@H](C)[C@@H](O)[C@H](N)[C@@H]2O)C[C@@H]2O[C@](O)(C[C@@H](O)C[C@@H](O)[C@H](O)CC[C@@H](O)C[C@@H](O)CC(=O)O[C@H]1C)C[C@H](O)[C@H]2C(=O)O [AMB, Amphotericin b, reference compound]							1 (≈ 1.08 µM)	0.5 (≈ 0.541 µM)	0.5 (≈ 0.541 µM)	2 (≈ 2.16 µM)	0.25 to 2 (≈ 0.271 to 2.16 µM)								
CC(=O)N1CCN(c2ccc(OCC3COC(Cn4ccnc4)(c4ccc(Cl)cc4Cl)O3)cc2)CC1 (centres unmarked) [KCZ, Ketoconazole, reference compound]															0.25 (≈ 0.47 µM)	0.5 (≈ 0.941 µM)	0.25 (≈ 0.47 µM)	0.5 (≈ 0.941 µM)	0.25 to 2 (≈ 0.47 to 3.76 µM)
